{"source": "patent US20210315840A1", "about": "“SOLID ORAL DOSAGE FORMS OF KETAMINE DERIVATIVES” (priority 2017, published 2021)", "key": {"CYP1A2": {"target": "T1, CYP1A2 (Homo sapiens, UniProt P05177)", "T1 sequence (P05177 1-516)": "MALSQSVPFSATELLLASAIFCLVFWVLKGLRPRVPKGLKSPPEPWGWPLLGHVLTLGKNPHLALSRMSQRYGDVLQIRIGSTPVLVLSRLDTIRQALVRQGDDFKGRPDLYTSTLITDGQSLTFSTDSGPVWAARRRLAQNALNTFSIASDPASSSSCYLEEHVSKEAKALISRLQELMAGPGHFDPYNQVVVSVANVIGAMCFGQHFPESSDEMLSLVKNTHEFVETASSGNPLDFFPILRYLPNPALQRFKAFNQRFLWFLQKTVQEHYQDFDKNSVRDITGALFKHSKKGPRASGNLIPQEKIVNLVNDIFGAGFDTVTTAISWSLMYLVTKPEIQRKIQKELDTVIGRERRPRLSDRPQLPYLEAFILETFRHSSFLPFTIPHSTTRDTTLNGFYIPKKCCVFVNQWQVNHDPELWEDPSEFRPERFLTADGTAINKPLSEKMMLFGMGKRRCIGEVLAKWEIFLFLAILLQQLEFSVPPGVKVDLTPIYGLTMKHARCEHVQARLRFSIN", "experiment": "CYP inhibition assay CYP1A2", "format": "in vitro ADME", "source_text": "(§1) Cytochrome P450s (CYPs) are a family of enzymes that play a primary role in the metabolism of a wide variety of drugs. 2R,6R-hydroxynorketamine was investigated for its potential to inhibit the action of 7 key CYP enzymes using an inhibition assay measuring reduction in the formation of metabolites compared to control."}, "[1]": {"experiment": "Oral bioavailability in vivo after oral gavage", "settings": "mice"}, "CYP2D6": {"target": "CYP2D6 (Homo sapiens, UniProt P10635)", "sequence (P10635 whole entry)": "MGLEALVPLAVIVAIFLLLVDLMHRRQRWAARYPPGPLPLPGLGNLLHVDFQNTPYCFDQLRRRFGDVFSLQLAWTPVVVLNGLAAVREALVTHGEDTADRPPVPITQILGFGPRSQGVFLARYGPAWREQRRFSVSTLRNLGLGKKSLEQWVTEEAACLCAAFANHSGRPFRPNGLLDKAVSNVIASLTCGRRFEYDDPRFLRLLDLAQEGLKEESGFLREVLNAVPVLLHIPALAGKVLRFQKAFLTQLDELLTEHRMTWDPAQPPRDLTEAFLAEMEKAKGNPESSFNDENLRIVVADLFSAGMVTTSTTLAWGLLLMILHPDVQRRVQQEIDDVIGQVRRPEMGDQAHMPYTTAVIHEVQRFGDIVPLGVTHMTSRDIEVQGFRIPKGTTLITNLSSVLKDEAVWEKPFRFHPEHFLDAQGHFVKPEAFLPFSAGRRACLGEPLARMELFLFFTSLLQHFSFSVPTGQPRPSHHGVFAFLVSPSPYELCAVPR", "experiment": "CYP inhibition assay CYP2D6", "format": "in vitro ADME", "source_text": "as §1"}, "5-HT1A": {"target": "T2, 5-HT1A (Homo sapiens, UniProt P08908)", "T2 sequence (P08908 1-422)": "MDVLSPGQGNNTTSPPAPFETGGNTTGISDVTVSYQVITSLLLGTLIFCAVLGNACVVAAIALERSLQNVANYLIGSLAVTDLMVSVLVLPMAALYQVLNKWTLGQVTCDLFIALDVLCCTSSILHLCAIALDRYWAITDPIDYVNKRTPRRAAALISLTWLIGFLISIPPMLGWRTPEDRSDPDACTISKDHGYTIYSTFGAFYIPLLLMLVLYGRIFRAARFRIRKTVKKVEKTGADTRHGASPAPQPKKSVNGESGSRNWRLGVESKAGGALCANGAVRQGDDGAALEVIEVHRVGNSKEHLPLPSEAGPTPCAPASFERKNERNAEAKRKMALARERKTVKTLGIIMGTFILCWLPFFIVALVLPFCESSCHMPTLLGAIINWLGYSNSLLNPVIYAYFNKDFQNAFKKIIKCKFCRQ", "experiment": "Binding assay 5-HT1A", "source_text": "(§2) 2R,6R-hydroxynorketamine was investigated for binding to monoamine oxidases A and B, monoamine transporters, as well as a variety of 5HT receptors."}, "5-HT2A": {"target": "5-HT2A (Homo sapiens, UniProt P28223)", "sequence (P28223 whole entry)": "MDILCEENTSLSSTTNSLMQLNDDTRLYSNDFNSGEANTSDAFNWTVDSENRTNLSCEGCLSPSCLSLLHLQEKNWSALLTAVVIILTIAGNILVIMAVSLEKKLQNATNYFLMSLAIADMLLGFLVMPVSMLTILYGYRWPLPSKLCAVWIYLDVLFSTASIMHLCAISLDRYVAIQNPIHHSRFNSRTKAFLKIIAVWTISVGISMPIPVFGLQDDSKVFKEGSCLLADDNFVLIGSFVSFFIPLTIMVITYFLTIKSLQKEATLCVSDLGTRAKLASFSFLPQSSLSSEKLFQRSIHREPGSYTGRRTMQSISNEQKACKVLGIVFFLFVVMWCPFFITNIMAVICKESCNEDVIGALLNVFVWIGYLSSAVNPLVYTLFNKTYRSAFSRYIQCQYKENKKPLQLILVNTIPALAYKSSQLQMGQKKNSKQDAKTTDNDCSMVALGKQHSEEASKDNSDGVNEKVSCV", "experiment": "Binding assay 5-HT2A", "source_text": "as §2"}, "CYP2C9": {"target": "CYP2C9 (Homo sapiens, UniProt P11712)", "sequence (P11712 whole entry)": "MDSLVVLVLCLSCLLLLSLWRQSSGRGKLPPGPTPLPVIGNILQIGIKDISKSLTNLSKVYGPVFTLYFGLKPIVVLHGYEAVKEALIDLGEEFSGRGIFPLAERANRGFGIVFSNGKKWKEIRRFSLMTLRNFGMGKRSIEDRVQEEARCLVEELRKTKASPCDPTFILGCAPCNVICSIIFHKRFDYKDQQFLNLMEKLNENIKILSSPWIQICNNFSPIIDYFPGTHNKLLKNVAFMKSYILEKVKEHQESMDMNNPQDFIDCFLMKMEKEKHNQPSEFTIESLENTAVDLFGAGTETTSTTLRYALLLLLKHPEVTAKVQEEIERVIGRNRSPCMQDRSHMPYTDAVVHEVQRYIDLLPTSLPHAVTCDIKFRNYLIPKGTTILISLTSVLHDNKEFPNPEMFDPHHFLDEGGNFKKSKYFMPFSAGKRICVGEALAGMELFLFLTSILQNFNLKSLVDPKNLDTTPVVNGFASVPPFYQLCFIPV", "experiment": "CYP inhibition assay CYP2C9", "format": "in vitro ADME", "source_text": "as §1"}, "CYP3A4": {"target": "CYP3A4 (Homo sapiens, UniProt P08684)", "sequence (P08684 whole entry)": "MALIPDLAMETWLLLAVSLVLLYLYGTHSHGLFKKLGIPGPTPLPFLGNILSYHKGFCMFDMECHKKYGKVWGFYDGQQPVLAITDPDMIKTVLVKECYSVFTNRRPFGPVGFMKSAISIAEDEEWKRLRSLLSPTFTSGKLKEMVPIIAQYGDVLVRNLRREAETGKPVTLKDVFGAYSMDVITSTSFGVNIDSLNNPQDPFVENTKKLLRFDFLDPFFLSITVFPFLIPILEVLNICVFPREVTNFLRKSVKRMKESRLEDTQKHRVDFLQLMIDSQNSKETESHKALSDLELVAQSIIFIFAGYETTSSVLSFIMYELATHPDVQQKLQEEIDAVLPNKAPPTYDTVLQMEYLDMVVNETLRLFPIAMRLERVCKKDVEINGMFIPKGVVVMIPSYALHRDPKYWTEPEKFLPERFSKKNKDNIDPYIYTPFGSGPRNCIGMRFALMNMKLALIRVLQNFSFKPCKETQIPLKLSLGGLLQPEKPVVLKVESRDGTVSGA", "experiment": "CYP inhibition assay CYP3A4, substrate midazolam", "format": "in vitro ADME", "settings": "for % Inhibition: Substrate = midazolam", "source_text": "as §1"}, "CYP2C19": {"target": "CYP2C19 (Homo sapiens, UniProt P33261)", "sequence (P33261 whole entry)": "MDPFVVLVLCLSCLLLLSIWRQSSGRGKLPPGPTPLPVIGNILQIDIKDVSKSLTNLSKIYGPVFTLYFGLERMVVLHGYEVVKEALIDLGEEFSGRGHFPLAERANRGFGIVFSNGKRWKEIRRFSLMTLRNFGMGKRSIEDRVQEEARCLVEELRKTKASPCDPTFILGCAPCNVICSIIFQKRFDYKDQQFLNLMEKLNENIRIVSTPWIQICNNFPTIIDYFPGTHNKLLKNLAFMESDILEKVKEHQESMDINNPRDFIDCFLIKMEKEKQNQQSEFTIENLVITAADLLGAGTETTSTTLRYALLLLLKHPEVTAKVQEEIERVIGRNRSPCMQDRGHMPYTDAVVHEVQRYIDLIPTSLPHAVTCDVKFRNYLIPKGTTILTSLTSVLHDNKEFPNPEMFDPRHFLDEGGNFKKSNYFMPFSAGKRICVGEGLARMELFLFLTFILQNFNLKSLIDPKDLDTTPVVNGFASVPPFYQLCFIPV", "experiment": "CYP inhibition assay CYP2C19", "format": "in vitro ADME", "source_text": "as §1"}, "UGT1A1": {"target": "UGT1A1 (Homo sapiens, UniProt P22309)", "sequence (P22309 26-533)": "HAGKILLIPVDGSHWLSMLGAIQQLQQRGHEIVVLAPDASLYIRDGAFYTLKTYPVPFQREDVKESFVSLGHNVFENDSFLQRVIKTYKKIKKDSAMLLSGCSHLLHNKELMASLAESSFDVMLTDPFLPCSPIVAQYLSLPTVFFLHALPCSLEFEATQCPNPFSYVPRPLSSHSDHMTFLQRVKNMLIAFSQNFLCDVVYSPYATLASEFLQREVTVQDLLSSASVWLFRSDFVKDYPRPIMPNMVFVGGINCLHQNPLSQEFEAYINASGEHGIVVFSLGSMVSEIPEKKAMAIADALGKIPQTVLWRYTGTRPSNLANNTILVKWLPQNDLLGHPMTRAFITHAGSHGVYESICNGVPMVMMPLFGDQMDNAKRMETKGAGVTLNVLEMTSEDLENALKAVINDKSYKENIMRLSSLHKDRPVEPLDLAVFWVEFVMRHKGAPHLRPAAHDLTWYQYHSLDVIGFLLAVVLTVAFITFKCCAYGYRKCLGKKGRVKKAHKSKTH", "experiment": "UGT inhibition assay UGT1A1", "format": "in vitro ADME", "source_text": "2R,6R-hydroxynorketamine was therefore investigated for its potential to inhibit this isozyme, along with that of the major UGT isozyme, UGT1A1, using a UGT inhibition assay."}, "[2]": {"system": "cryopreserved hepatocytes", "experiment": "Hepatocyte stability assay, dog", "settings": "3 μM"}, "MAO-A": {"target": "MAO-A (Homo sapiens, UniProt P21397)", "sequence (P21397 whole entry, species assumed)": "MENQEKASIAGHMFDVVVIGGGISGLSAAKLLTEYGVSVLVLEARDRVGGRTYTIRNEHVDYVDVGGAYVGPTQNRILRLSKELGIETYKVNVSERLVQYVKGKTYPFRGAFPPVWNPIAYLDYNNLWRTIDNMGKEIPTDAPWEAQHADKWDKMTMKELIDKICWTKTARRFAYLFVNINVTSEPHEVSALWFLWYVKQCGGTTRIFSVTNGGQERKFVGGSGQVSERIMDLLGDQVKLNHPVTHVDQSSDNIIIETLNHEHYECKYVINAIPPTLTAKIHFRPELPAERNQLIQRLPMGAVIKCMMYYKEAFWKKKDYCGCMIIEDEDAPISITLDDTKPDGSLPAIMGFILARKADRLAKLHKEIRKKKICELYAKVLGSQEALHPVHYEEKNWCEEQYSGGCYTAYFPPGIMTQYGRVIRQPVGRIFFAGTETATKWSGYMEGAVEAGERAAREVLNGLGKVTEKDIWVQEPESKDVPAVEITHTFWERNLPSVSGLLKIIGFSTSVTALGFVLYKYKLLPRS", "experiment": "Binding assay MAO-A", "source_text": "as §2"}, "5-HT transporter": {"target": "5-HT transporter (Homo sapiens, UniProt P31645)", "sequence (P31645 whole entry, species assumed)": "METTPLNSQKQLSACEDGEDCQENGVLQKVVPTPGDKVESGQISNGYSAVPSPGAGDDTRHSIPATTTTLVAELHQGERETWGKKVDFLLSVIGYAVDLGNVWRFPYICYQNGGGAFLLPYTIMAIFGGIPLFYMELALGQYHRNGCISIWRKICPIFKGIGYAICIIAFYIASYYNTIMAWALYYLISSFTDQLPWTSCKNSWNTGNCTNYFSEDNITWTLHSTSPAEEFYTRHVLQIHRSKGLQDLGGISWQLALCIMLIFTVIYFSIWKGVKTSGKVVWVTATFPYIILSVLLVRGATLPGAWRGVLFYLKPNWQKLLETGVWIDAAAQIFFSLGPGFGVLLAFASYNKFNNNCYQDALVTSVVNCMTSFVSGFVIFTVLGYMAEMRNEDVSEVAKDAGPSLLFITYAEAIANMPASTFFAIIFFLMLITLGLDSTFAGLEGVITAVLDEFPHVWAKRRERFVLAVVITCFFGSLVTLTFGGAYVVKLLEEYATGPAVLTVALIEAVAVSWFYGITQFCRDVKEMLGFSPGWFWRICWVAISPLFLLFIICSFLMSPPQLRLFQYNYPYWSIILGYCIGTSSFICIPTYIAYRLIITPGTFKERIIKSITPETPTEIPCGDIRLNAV", "experiment": "Binding assay 5-HT transporter", "source_text": "as §2"}, "UGT2B7": {"target": "UGT2B7 (Homo sapiens, UniProt P16662)", "sequence (P16662 24-529)": "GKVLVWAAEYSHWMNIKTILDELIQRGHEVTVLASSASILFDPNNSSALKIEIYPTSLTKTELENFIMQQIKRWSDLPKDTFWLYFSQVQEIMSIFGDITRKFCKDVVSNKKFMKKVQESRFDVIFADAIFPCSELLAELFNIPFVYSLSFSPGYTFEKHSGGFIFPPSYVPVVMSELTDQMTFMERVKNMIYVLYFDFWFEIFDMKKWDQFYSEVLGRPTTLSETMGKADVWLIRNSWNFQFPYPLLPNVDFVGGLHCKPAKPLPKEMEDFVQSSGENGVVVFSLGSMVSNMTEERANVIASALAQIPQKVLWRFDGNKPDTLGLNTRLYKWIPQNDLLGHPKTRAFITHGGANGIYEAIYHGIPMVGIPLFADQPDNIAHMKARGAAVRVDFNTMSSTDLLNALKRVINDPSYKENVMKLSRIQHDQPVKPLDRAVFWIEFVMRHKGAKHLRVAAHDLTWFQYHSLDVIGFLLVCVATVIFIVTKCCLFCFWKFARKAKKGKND", "experiment": "UGT inhibition assay UGT2B7", "format": "in vitro ADME"}, "[3]": {"experiment": "DSC compatibility with excipients and capsule shells"}, "[4]": {"experiment": "Turbidimetric aqueous solubility", "format": "physicochemical"}}, "note": "pIC50: −log10 of the molar value. Like-named read-outs stand apart in the source and are kept apart here."}
{"compound": "N[C@@]1(c2ccccc2Cl)CCC[C@@H](O)C1=O", "note": "[2R,6R-hydroxynorketamine, 2R,6R-2-(2-Chlorophenyl)-2-(amino)-6-hydroxycyclohexanone]", "values": [{"measurement": "pIC50", "setting": "CYP1A2", "result": "~4.00"}, {"measurement": "% Inhibition", "setting": "CYP1A2; 0.4 μM", "result": 7.55, "unit": "%"}, {"measurement": "% Inhibition", "setting": "CYP1A2; 1 μM", "result": 8.80, "unit": "%"}, {"measurement": "% Inhibition", "setting": "CYP1A2; 4 μM", "result": 11.7, "unit": "%"}, {"measurement": "% Inhibition", "setting": "CYP1A2; 10 μM", "result": 19.3, "unit": "%"}, {"measurement": "% Inhibition", "setting": "CYP1A2; 40 μM", "result": 24.8, "unit": "%"}, {"measurement": "% Inhibition", "setting": "CYP1A2; 100 μM", "result": 48.6, "unit": "%"}, {"measurement": "oral bioavailability", "setting": "[1]; high oral dose (>30 mg/kg)", "result": "good"}, {"measurement": "oral bioavailability", "setting": "[1]; low oral dose", "result": "poor"}, {"measurement": "substrate of p-gp or Breast Cancer Resistance Protein (BCRP) efflux transporters", "setting": "Caco-2; Caco-2", "result": "not a substrate"}, {"measurement": "permeability (in words)", "setting": "Caco-2; Caco-2 permeability assay", "result": "high"}, {"measurement": "Mean % Recovery", "setting": "Caco-2; Direction = A2B", "result": 98.9, "unit": "%"}, {"measurement": "Mean Papp", "setting": "Caco-2; Direction = A2B", "result": "45.7 10^−6 cms^−1"}, {"measurement": "Papp Replicate 1", "setting": "Caco-2; Direction = A2B", "result": "49.1 10^−6 cms^−1"}, {"measurement": "Papp Replicate 2", "setting": "Caco-2; Direction = A2B", "result": "42.3 10^−6 cms^−1"}, {"measurement": "Mean % Recovery", "setting": "Caco-2; Direction = B2A", "result": 103, "unit": "%"}, {"measurement": "Mean Papp", "setting": "Caco-2; Direction = B2A", "result": "50.7 10^−6 cms^−1"}, {"measurement": "Papp Replicate 1", "setting": "Caco-2; Direction = B2A", "result": "52.8 10^−6 cms^−1"}, {"measurement": "Papp Replicate 2", "setting": "Caco-2; Direction = B2A", "result": "48.5 10^−6 cms^−1"}, {"measurement": "inhibition of CYP2D6 (in words)", "setting": "CYP2D6", "result": "did not inhibit"}, {"measurement": "% Inhibition", "setting": "CYP2D6; 0.4 μM", "result": 3.16, "unit": "%"}, {"measurement": "% Inhibition", "setting": "CYP2D6; 1 μM", "result": 6.65, "unit": "%"}, {"measurement": "% Inhibition", "setting": "CYP2D6; 4 μM", "result": 11.5, "unit": "%"}, {"measurement": "% Inhibition", "setting": "CYP2D6; 10 μM", "result": 9.41, "unit": "%"}, {"measurement": "% Inhibition", "setting": "CYP2D6; 40 μM", "result": 11.2, "unit": "%"}, {"measurement": "% Inhibition", "setting": "CYP2D6; 100 μM", "result": 5.73, "unit": "%"}, {"measurement": "% Inhibition of Control Specific Binding", "setting": "5-HT1A", "result": 5, "unit": "%"}, {"measurement": "% of Control Specific Binding", "setting": "5-HT1A", "result": 97.9, "unit": "%"}, {"measurement": "binding to 5HT1A receptor subtype (in words)", "setting": "5-HT1A", "result": "does not bind"}, {"measurement": "% Inhibition of Control Specific Binding", "setting": "5-HT2A", "result": 0, "unit": "%"}, {"measurement": "% of Control Specific Binding", "setting": "5-HT2A", "result": 103.8, "unit": "%"}, {"measurement": "binding to 5HT2A receptor subtype (in words)", "setting": "5-HT2A", "result": "does not bind"}, {"measurement": "inhibition of CYP2C9 (in words)", "setting": "CYP2C9", "result": "did not inhibit"}, {"measurement": "% Inhibition", "setting": "CYP2C9; 0.4 μM", "result": 4.59, "unit": "%"}, {"measurement": "% Inhibition", "setting": "CYP2C9; 1 μM", "result": 5.92, "unit": "%"}, {"measurement": "% Inhibition", "setting": "CYP2C9; 4 μM", "result": 5.80, "unit": "%"}, {"measurement": "% Inhibition", "setting": "CYP2C9; 10 μM", "result": 11.9, "unit": "%"}, {"measurement": "% Inhibition", "setting": "CYP2C9; 40 μM", "result": "−0.113", "unit": "%"}, {"measurement": "% Inhibition", "setting": "CYP2C9; 100 μM", "result": "−1.33", "unit": "%"}, {"measurement": "% Inhibition", "setting": "CYP3A4; 0.4 μM", "result": 11.5, "unit": "%"}, {"measurement": "% Inhibition", "setting": "CYP3A4; 1 μM", "result": 8.44, "unit": "%"}, {"measurement": "% Inhibition", "setting": "CYP3A4; 4 μM", "result": 15.7, "unit": "%"}, {"measurement": "% Inhibition", "setting": "CYP3A4; 10 μM", "result": 25.7, "unit": "%"}, {"measurement": "% Inhibition", "setting": "CYP3A4; 40 μM", "result": 43.7, "unit": "%"}, {"measurement": "% Inhibition", "setting": "CYP3A4; 100 μM", "result": 57.5, "unit": "%"}, {"measurement": "pIC50", "setting": "CYP3A4; substrate midazolam", "result": 4.16}, {"measurement": "inhibition of CYP2C19 (in words)", "setting": "CYP2C19", "result": "did not inhibit"}, {"measurement": "% Inhibition", "setting": "CYP2C19; 0.4 μM", "result": "−2.01", "unit": "%"}, {"measurement": "% Inhibition", "setting": "CYP2C19; 1 μM", "result": "−1.66", "unit": "%"}, {"measurement": "% Inhibition", "setting": "CYP2C19; 4 μM", "result": 1.85, "unit": "%"}, {"measurement": "% Inhibition", "setting": "CYP2C19; 10 μM", "result": 6.69, "unit": "%"}, {"measurement": "% Inhibition", "setting": "CYP2C19; 40 μM", "result": 8.25, "unit": "%"}, {"measurement": "% Inhibition", "setting": "CYP2C19; 100 μM", "result": 16.1, "unit": "%"}, {"measurement": "inhibition of UGT1A1 (in words)", "setting": "UGT1A1", "result": "does not inhibit"}, {"measurement": "CLint", "setting": "[2]", "result": 4.72, "unit": "μL/min/10^6 cells"}, {"measurement": "t1/2", "setting": "[2]", "result": 4.9, "unit": "h"}, {"measurement": "% Inhibition of Control Specific Binding", "setting": "MAO-A", "result": "−5", "unit": "%"}, {"measurement": "% of Control Specific Binding", "setting": "MAO-A", "result": 97.7, "unit": "%"}, {"measurement": "% Inhibition of Control Specific Binding", "setting": "5-HT transporter", "result": 2, "unit": "%"}, {"measurement": "% of Control Specific Binding", "setting": "5-HT transporter", "result": 102.0, "unit": "%"}, {"measurement": "inhibition of UGT2B7 (in words)", "setting": "UGT2B7", "result": "does not inhibit"}, {"measurement": "compatibility with dicalcium phosphate and microcrystalline cellulose", "setting": "[3]", "result": "compatibility"}, {"measurement": "compatibility with lactose monohydrate (DSC)", "setting": "[3]; binary mix 1:2 API:Excipient", "result": "incompatible"}, {"measurement": "solubility (in words)", "setting": "[4]", "result": "high"}]}
